The record followed here is paper PMC10539439 (Pharmacological Reports, 2023).

Several values for one entry are separate records, joined by “and”; a condition that tells them apart may be missing. Identical values can stand only once.

The target in one data set is T1, α2A-adrenoceptor (Homo sapiens, UniProt P08913).
T1 sequence (P08913 1-465): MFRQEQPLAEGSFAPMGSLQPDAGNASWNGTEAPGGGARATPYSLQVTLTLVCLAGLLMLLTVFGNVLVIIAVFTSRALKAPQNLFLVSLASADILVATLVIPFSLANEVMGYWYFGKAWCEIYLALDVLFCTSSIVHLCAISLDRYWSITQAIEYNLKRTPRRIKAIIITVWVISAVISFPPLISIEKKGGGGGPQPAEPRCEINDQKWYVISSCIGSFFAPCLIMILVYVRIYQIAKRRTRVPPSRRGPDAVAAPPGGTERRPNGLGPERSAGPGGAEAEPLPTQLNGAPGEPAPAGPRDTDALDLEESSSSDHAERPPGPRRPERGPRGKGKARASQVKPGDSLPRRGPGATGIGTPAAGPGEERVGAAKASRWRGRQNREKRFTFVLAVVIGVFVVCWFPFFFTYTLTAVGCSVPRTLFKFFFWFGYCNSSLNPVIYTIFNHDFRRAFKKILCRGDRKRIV
Put plainly: Intrinsic activity, Tango beta-lactamase reporter assay. Format: cell-based. Conditions: ADRAA2A. The procedure: The intrinsic activity at α2A-adrenoceptor was assessed by the Tango assay technology that uses a mammalian-optimized beta-lactamase (bla) reporter gene combined with an FRET-enabled substrate to provide reliable and sensitive detection in cells. Cells are loaded with an engineered fluorescent substrate containing two fluorophores, coumarin, and fluorescein. In the absence of bla expression, the substrate molecule remains intact. In this state, excitation of the coumarin results in a transfer of fluorescence resonance energy to the fluorescein moiety and emission of green fluorescent light. However, in the presence of bla expression, the substrate is cleaved, separating the fluorophores and disrupting energy transfer. Excitation of the coumarin in the presence of bla enzyme activity results in a blue fluorescence signal.
Intrinsic activity assay was performed according to the manufacturer of the assay kit (Invitrogen, Life Technologies). Cells were harvested and resuspended in an assay medium at a density of 312,500 cells/ml. 32 μL per well of cell suspension was added to the test compound wells, the unstimulated control wells, and the stimulated control wells, and incubated for 16–24 h. To perform an agonist assay, 8 μL of 5 × of agonist in the assay medium was added to the cells. […] Then, the agonist and antagonist plates were incubated in a humidified incubator at 37 °C/5% CO2 for 5 h. After the incubation, 8 μL of LiveBLAzer™-FRET B/G substrate mixture (CCF4-AM) was loaded into cells in the absence of direct strong lighting, covered, and incubated at room temperature for 2 h.

Data set [1] can be described thus: Pharmacokinetics in plasma after ip administration. The format is in vivo, rat. Conditions: plasma; for concentration in plasma (single sample): individual samples 1-3. The procedure: (§1) For the pharmacokinetic study, a group of 56 adult male rats (Wistar, 220–250 g, […]) were used in the experiment. Animals were purchased from the Animal House of the Faculty of Pharmacy of Jagiellonian University Medical College, Krakow, Poland. During the habituation period, the groups of 4 rats were kept in a plastic cage at a controlled room temperature (22 ± 2 ℃), humidity (55 ± 10%), full-spectrum cold white light (350–400 lx), in 12 h light/dark cycles (the lights on at 7:00 am, and off at 19:00 pm), and had free access to standard laboratory pellet and tap water. […] These were then given through an intraperitoneally injections (ip) at a dose of 0.3 mg/kg and 0.4 mg/kg, respectively. Blood samples were collected at 0 min (predose), 5 min, 15 min, 30 min, 60 min, 120 min, and 240 min after compound administration. Blood and brain samples were collected under general anesthesia induced by ip injections of 50 mg/kg ketamine plus 8 mg/kg xylazine. Blood samples were taken in heparinized tubes and immediately centrifuged at 3500 rpm for 10 min, and plasma was collected. Brain and plasma samples were immediately frozen at – 80 ℃ for LC/MS/MS analysis. All experimental procedures were carried out according to EU Directive 2010/63/EU and approved by the I Local Ethics Committee for Animal Experiments of the Jagiellonian University in Krakow, Poland (No. 94/2016).
(§2) The pharmacokinetic parameters were calculated using a non-compartmental approach from the average concentration values, using Phoenix WinNonlin software (Certara, Princeton, NJ 08540 USA). The first-order elimination rate constant (λz) was calculated by linear regression of time versus log concentration. Next, the area under the mean plasma and the concentration in the brain versus the time curve (AUC0→t) were estimated using the log-linear trapezoidal rule (Eq. 1), where Cn is the concentration of the last sampling of each compound1 AUC0→t=∑i=1n(Ci+Ci+1)/2·ti+1-ti+Cn/λz.
The area under the first-moment curve (AUMC0→t) was estimated by calculating of the total area under the first-moment curve using Eq. 2, where tn is the time of last sampling2 AUMC0→t=∑i=1n(ti·Ci+ti+1·Ci+1)/2·ti+1-ti+(tn·Cn)/λz+Cn/λz2.
Mean residence time (MRT, Eq. 3) was calculated as3 MRT=AUMC0→t/AUC0→t.
Total clearance (ClT, Eq. 4) was calculated as4 C1T=F·Di.p./AUC0→t.
(§3) The quantification of compounds in plasma and brain samples was performed using the Sciex API 3200 triple quadrupole mass spectrometer (Concord, Ontario, Canada) equipped with an electrospray (ESI) ionization interface. This instrument was coupled to an Elite LaChrom (Hitachi, USA) HPLC system. Data acquisition and processing were performed using Sciex Analyst 1.5.2 data collection and integration software. After preparation, the samples were injected (20 µL) onto XBridge C18 (2.1 mm × 30 mm, 3.5 μm, Waters, Milford, Massachusetts, USA) analytical column. The mobile phase consisted of 0.1% formic acid in acetonitrile (A) and 0.1% formic acid in water (B) was delivered in a gradient elution starting with 90% of eluent B, increasing for 2 min to 90% of eluent A, maintained for 3 min, and then returned for 5 min to 90% of eluent B, and maintained 90% of eluent B during 5 min at a flow rate of 300 µL/min. The total analysis time was 10 min. […] The ion spray source settings were as follows: spray voltage: 5.5 kV, heater temperature: 400 °C, curtain gas: 10 psi, source gas 1: 20 psi, and source gas 2: 20 psi.
Further dilutions were performed using the same solvent to prepare working standard solutions of the analyte at the following concentrations: 0.025, 0.05, 0.1, 0.25, 0.5, 1.0, 2.5, 5.0, 10, 25, and 50 µg/mL for calibration curve samples (CC) and 0.025, 0.075, 2.2, and 4.5 µg/mL for quality control samples (QC). […]

The nature of data set [2]: Distribution in brain after ip administration. Format: in vivo, rat. To be noted: brain; for concentration in brain (single sample): individual samples 1-3. The procedure:
as §1, with “Poland.” for “Poland. During the habituation period, the groups of 4 rats were kept in a plastic cage at a controlled room temperature (22 ± 2 ℃), humidity (55 ± 10%), full-spectrum cold white light (350–400 lx), in 12 h light/dark cycles (the lights on at 7:00 am, and off at 19:00 pm), and had free access to standard laboratory pellet and tap water.”
as §2, §3
Further dilutions were performed using the same solvent to prepare working standard solutions of the analyte at the following concentrations: 0.025, 0.05, 0.1, 0.25, 0.5, 1.0, 2.5, 5.0, 10, 25, and 50 µg/mL for calibration curve samples (CC) and 0.025, 0.075, 2.2, and 4.5 µg/mL for quality control samples (QC). To prepare samples for calibration curve or quality control samples, 45 µL of the matrix (plasma or brain homogenate) was added with 5 µL of internal standard solution (1 µg/mL) obtaining the final concentration of 100 ng/mL and 5 µL of standard working solutions at the needed CC or QC concentration levels. After the addition of the standard solution, the samples were mixed and purified.
A sample volume of 50 µL of plasma or brain homogenate was transferred to the clean Eppendorf tube and spiked with 5 µL of IS solution (1 µg/mL) obtaining the final concentration of 100 ng/mL. After 5 min of mixing (1500 rpm) proteins were precipitated using 200 µL ACN. After 10 min of sample shaking (1500 rpm), the incubation step was performed (10 min, 4 °C). The samples were then centrifuged (10,000 rpm, 10 min, 4 °C) and the supernatant was transferred to chromatographic vials for LC/MS/MS analysis.

Consider `Brc1c(NC2=NCCN2)ccc2nccnc12` [brimonidine], for which the “% of max response” value on α2A-adrenoceptor (agonist, concentration 1e-11) was -0.4968% and 2.419% and -2.234% and 0.961%; at α2A-adrenoceptor (agonist, concentration 1e-10), 2.567% and 0.2495% and -1.378% and 1.408%; at α2A-adrenoceptor (agonist, concentration 1e-9) it was 4.21% and 2.461% and -0.5064% and 3.335%; on α2A-adrenoceptor (agonist, concentration 1e-8), 48.0757% and 59.1796% and 30.9499% and 53.6276%; at α2A-adrenoceptor (agonist, concentration 1e-7), 88.9964% and 81.4266%.

Regarding `COC(=O)[C@@H]1[C@H]2C[C@H]3c4[nH]c5ccccc5c4CCN3C[C@@H]2CC[C@@H]1O` [Yohimbine], the “% of max response” value on α2A-adrenoceptor (antagonist vs brimonidine EC80, concentration 1e-11) was 99.193% and 99.631%; on α2A-adrenoceptor (antagonist vs brimonidine EC80, concentration 1e-10), 89.6162%; at α2A-adrenoceptor (antagonist vs brimonidine EC80, concentration 1e-9), 70.6442% and 68.4607%; at α2A-adrenoceptor (antagonist vs brimonidine EC80, concentration 1e-8), 17.048% and 15.1589%; at α2A-adrenoceptor (antagonist vs brimonidine EC80, concentration 1e-7), 6.64%; on α2A-adrenoceptor (antagonist vs brimonidine EC80, concentration 1e-6), 8.3079%.

In the case of `Cl.N=C(N)N/N=C/c1c(Cl)cc(O)cc1Cl` [HGB], the “concentration in plasma (single sample)” value in data set [1] (5 min) was 41.279 ng/mL and 54.6155 ng/mL and 66.8757 ng/mL; in data set [1] (15 min), 105.888 ng/mL and 100.591 ng/mL and 95.109 ng/mL; in data set [1] (30 min), 16.0042 ng/mL and 23.9125 ng/mL and 20.5783 ng/mL; in data set [1] (60 min) it was 44.699 ng/mL and 41.9435 ng/mL and 39.1715 ng/mL; in data set [1] (120 min), 10.1897 ng/mL and 6.772 ng/mL and 9 ng/mL; in data set [1] (240 min) it was 5.591 ng/mL and 8.595 ng/mL and 5.3874 ng/mL. Also, the “concentration in plasma (mean)” value in data set [1] (5 min after administration) worked out at 54.2567 ng/mL; in data set [1] (15 min after administration) it was 100.53 ng/mL; in data set [1] (30 min after administration) it was 20.165 ng/mL; in data set [1] (60 min after administration) it was 41.938 ng/mL; in data set [1] (120 min after administration), 8.6536 ng/mL; in data set [1] (240 min after administration), 6.524 ng/mL. For the same compound, the “concentration in brain (single sample)” value was 14.9497 ng/g and 11.5414 ng/g and 13.5496 ng/g in data set [2] (5 min); 59.5505 ng/g and 64.4857 ng/g and 70.3065 ng/g in data set [2] (15 min); 29.8349 ng/g and 23.7225 ng/g and 18.0636 ng/g in data set [2] (30 min); 5.077 ng/g and 3.611 ng/g and 4.9468 ng/g in data set [2] (60 min); 3.263 ng/g and 4.746 ng/g and 3.8221 ng/g in data set [2] (120 min); 2.689 ng/g and 4.759 ng/g and 2.17 ng/g in data set [2] (240 min). Also, the “concentration in brain (mean)” value in data set [2] (5 min after administration) was determined as 13.3469 ng/g; in data set [2] (15 min after administration), 64.7809 ng/g; in data set [2] (30 min after administration), 23.8737 ng/g; in data set [2] (60 min after administration), 4.545 ng/g; in data set [2] (120 min after administration) it was 3.944 ng/g; in data set [2] (240 min after administration) it was 3.206 ng/g.
